This passage reports IC50, degraded and Ki results from ChEMBL document CHEMBL3734729, “Synthesis and comparison of the biological activity of monocyclic phosphonate, difluorophosphonate and phosphate analogs of the natural AChE inhibitor cyclophostin” (Bioorg Med Chem, 2015).

Data set [1] deals with T1, Acetylcholinesterase (Homo sapiens, UniProt P22303). Briefly: Inhibition of human AChE at pH 6.
Data set [2] deals with T1, Acetylcholinesterase. Briefly: Inhibition of human AChE at pH 8.
A short description of data set [3]: Drug degradation in sodium phosphate buffer at pH 8 after 1 hr by NMR analysis. The conditions noted are these: read-out: Drug degradation. The data set is classed as physicochemical.
The nature of data set [4]: Drug degradation in sodium phosphate buffer at pH 8 after 24 hrs by NMR analysis. In kind it is physicochemical. The settings on record: read-out: Drug degradation.
Data set [5] is described as follows: Drug degradation in sodium phosphate buffer at pH 8 after 30 mins by NMR analysis. The data set is classed as physicochemical. The conditions noted are these: read-out: Drug degradation.
Data set [6] in a line: Drug degradation in MES buffer at pH 6 after 1 hr by NMR analysis. The data set is classed as physicochemical. The settings on record: read-out: Drug degradation.
Data set [7] can be described thus: Drug degradation in sodium phosphate buffer at pH 7 after 24 hrs by NMR analysis. The data set is classed as physicochemical. The conditions noted are these: read-out: Drug degradation.
The nature of data set [8]: Drug degradation in sodium phosphate buffer at pH 7 after 1 hr by NMR analysis. The data set is classed as physicochemical. The conditions noted are these: read-out: Drug degradation.
A short description of data set [9]: Drug degradation in MES buffer at pH 6.5 after 1 hr by NMR analysis. In kind it is physicochemical. The settings on record: read-out: Drug degradation.
Data set [10] is described as follows: Drug degradation in MES buffer at pH 6 after 24 hrs by NMR analysis. In kind it is physicochemical. The conditions noted are these: read-out: Drug degradation.
Data set [11] is described as follows: Drug degradation in MES buffer at pH 6 after 30 mins by NMR analysis. The settings on record: read-out: Drug degradation. The data set is classed as physicochemical.
The nature of data set [12]: Drug degradation in sodium phosphate buffer at pH 7 after 30 mins by NMR analysis. The data set is classed as physicochemical. The settings on record: read-out: Drug degradation.
Data set [13] is described as follows: Drug degradation in MES buffer at pH 6.5 after 30 mins by NMR analysis. In kind it is physicochemical. The settings on record: read-out: Drug degradation.
The target of data set [14] is T1, Acetylcholinesterase. Briefly: Inhibition of AChE (unknown origin).
Data set [15] concerns the target T1, Acetylcholinesterase. Briefly: Irreversible inhibition of AChE (unknown origin).
Data set [16] deals with Acetylcholinesterase (Musca domestica, UniProt Q7YWJ9). Briefly: Inhibition of housefly CSMA AChE.

For orientation: IC50 means the concentration that gives 50% inhibition. A high value points to weaker potency.

Where only a bound is given, the exact number is not on record here.

T1 sequence (P22303 whole entry): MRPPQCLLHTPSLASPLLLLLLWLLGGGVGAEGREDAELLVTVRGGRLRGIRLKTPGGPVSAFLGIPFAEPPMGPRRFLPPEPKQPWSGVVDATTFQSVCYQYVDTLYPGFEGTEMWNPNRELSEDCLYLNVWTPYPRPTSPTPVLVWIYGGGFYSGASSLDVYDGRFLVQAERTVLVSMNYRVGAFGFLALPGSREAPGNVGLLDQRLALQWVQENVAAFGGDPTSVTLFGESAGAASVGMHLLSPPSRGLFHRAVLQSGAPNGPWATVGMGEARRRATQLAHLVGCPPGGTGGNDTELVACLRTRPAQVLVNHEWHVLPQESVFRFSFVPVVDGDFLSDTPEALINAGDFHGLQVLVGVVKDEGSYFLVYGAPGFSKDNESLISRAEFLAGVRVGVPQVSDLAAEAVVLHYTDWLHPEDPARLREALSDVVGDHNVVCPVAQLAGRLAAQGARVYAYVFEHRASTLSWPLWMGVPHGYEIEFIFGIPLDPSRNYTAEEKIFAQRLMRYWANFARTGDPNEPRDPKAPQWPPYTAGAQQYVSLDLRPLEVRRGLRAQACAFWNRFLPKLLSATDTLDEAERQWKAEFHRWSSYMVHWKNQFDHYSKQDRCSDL
Chain of Acetylcholinesterase (Musca domestica, UniProt Q7YWJ9) (Q7YWJ9 whole entry): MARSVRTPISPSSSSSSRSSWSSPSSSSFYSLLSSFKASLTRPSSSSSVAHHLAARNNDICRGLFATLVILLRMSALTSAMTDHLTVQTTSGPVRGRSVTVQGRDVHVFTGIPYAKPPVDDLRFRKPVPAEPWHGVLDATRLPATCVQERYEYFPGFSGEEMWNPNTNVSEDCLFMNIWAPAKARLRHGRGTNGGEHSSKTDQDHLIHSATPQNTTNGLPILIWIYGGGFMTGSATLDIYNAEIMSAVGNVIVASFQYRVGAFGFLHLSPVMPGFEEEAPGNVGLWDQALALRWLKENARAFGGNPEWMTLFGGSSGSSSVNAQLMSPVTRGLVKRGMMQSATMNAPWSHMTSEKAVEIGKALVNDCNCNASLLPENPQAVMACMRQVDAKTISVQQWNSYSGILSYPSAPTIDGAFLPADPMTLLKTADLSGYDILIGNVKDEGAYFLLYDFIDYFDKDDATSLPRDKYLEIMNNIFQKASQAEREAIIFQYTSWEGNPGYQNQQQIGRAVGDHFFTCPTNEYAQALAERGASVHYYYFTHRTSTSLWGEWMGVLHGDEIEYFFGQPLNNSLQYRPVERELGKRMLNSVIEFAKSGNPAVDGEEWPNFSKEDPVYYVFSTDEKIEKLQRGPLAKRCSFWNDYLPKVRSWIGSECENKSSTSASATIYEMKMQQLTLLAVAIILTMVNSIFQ

As to `CCOP1(=O)CCCC(C(=O)OC)=C(C)O1` (configuration not stated), the IC50 was 8.9 µM in [1] and 7.5 µM in [2].
As to `COC(=O)C1=C(C)OP(=O)(OC)CCC1` (configuration not stated), the degraded at 1 h in [3] was found to be 2%. Further, the values for the IC50 in data set [1] and in data set [2] were 26 µM and 12 µM, respectively. Also, in [4], the degraded at 24 h amounted to 9.6%. Moreover, the degraded at 0.5 h in [5] stood at 2%.
On to `CCOP1(=O)OC(C)=C(C(=O)OC)CCC1(F)F` (configuration not stated), for which the degraded at 1 h worked out at 4.1% in [6], 50% in data set [3], 34% in data set [8] and 7.2% in [9]. The degraded at 24 h in data set [7] was 100%; in data set [4], 100%; in data set [10] it was 65%. Moreover, the IC50 in data set [1] and in [2] was over 100 µM in each case. Also, the degraded at 0.5 h in [11] was 0.5%; in data set [5], 5%; in data set [12], 20%; in data set [13], 2.8%.
For the compound `COP1(=O)OC[C@H]2COC(=O)C2=C(C)O1` (single isomer, unassigned) [CYCLOPHOSTIN], the IC50 in data set [14] came out at 0.045 µM; in data set [16], 0.00076 µM; in [2] it was 0.04 µM. Further, in data set [15], the Ki is 0.14 µM.
Regarding `COP1(=O)OCCC(C(=O)OC(C)(C)C)=C(C)O1` (configuration not stated), the results for the IC50 in data set [1] and in [2] were 6.1 µM and 5.9 µM, respectively.
Compound `COP1(=O)OC[C@@H]2COC(=O)C2=C(C)O1` (single isomer, unassigned) gave an IC50 in data set [2] of 0.035 µM.
On to `COC(=O)C1=C(C)OP(=O)(OC)OCC1` (configuration not stated), for which the degraded at 1 h in data set [3] is 4%. In addition, the IC50 in data set [1] came to 1.04 µM; in data set [2] it was 1.03 µM. Further, the degraded at 24 h in [4] amounted to 57%. Moreover, the degraded at 0.5 h in [5] was 0%.
